We go through 19 compounds from patent US7803992B2, “Methods and compositions for expressing an herbicide-tolerant polynucleotide” (Pioneer Hi-Bred International, Inc., priority 2005, dated 2010).

Type in all cases: in vivo
For experiment [1], the system named is parent elite stiff stalk inbred corn. Description: Preemergence herbicide application in greenhouse: fresh shoot weight and visual injury. The settings on record: for pest or weed control at 200 g/ha: Zea mays, pre-emergence, 672 h, read-out: % Visual Injury; for Fresh Weight: fresh shoots weighed 4 weeks after treatment, untreated 36.7 g.
For experiment [2] the test system is unchanged. Description: Postemergence herbicide application in greenhouse: fresh shoot weight and visual injury. As to conditions: for pest or weed control at 200 g/ha: Zea mays, post-emergence, read-out: % Visual Injury; for Fresh Weight: weighed 2 weeks after treatment, untreated 76.4 g.
In experiment [3] the test system is Heterozygous GAT-HRA corn. The description is as above. The settings on record: for pest or weed control at 200 g/ha: Zea mays, post-emergence, read-out: % Visual Injury; for Fresh Weight: weighed 2 weeks after treatment, untreated 98.8 g.
Experiment [4] concerns Heterozygous GAT-HRA corn. Nature of the experiment: Preemergence herbicide application in greenhouse: fresh shoot weight and visual injury. As to conditions: for pest or weed control at 200 g/ha: Zea mays, pre-emergence, 672 h, read-out: % Visual Injury; for Fresh Weight: fresh shoots weighed 4 weeks after treatment, untreated 47.0 g.
The mark [5] stands for this setting: preemergence, 200 g/ha, 0% no injury, 100% plant death, mean of four replications.
The mark [6] stands for this setting: preemergence, 200 g/ha, mean of four replications.
[7] abbreviates: postemergence, 200 g/ha (glyphosate 3472 g ae/ha, glufosinate ammonium 1870 g/ha), 0% no injury, 100% plant death, mean of four replications.
Setting [8] is: postemergence, 200 g/ha (glyphosate 3472 g ae/ha, glufosinate ammonium 1870 g/ha), mean of four replications.

Regarding `COc1cc(OC)nc(NC(=O)NS(=O)(=O)N(C)S(C)(=O)=O)n1` [Amidosulfuron], the pest or weed control at 200 g/ha in experiment [1] (setting [5]) was determined as 97%; in experiment [2] (setting [7]), 71%; in experiment [3] (setting [7]), 8%; in experiment [4] (setting [5]) it was 25%. The “Fresh Weight” value is 14.2 g in experiment [1] (setting [6]), 32.0 g in experiment [2] (setting [8]), 107.4 g in experiment [3] (setting [8]) and 47.7 g in experiment [4] (setting [6]).

For the compound `COc1cc(OC)nc(NC(=O)NS(=O)(=O)c2c(-c3nnn(C)n3)cnn2C)n1` [Azimsulfuron], the pest or weed control at 200 g/ha in experiment [1] (setting [5]) came out at 100%; in experiment [2] (setting [7]) it was 100%; in experiment [3] (setting [7]) it was 20%; in experiment [4] (setting [5]), 40%. For the same compound, the “Fresh Weight” value in experiment [1] (setting [6]) is recorded as 0.0 g; in experiment [2] (setting [8]), 1.5 g; in experiment [3] (setting [8]) it was 87.9 g; in experiment [4] (setting [6]), 49.1 g.

As for `COC(=O)c1ccccc1CS(=O)(=O)NC(=O)Nc1nc(OC)cc(OC)n1` [Bensulfuron-methyl], the pest or weed control at 200 g/ha in experiment [1] (setting [5]) came to 23%; in experiment [2] (setting [7]) it was 93%; in experiment [3] (setting [7]) it was 14%; in experiment [4] (setting [5]), 10%. Further, the “Fresh Weight” value is on record as 28.4 g in experiment [1] (setting [6]), 9.0 g in experiment [2] (setting [8]), 103.3 g in experiment [3] (setting [8]) and 39.9 g in experiment [4] (setting [6]).

`CCOc1nc(F)cc2nc(S(=O)(=O)Nc3c(Cl)cccc3C(=O)OC)nn12` [Chloransulam-methyl]: the “% Visual Injury” value is 3% in experiment [1] (setting [5]), 96% in experiment [2] (setting [7]), 3% in experiment [3] (setting [7]) and 3% in experiment [4] (setting [5]). For the same compound, the “Fresh Weight” value amounted to 5.5 g in experiment [1] (setting [6]), 6.8 g in experiment [2] (setting [8]), 104.4 g in experiment [3] (setting [8]) and 44.9 g in experiment [4] (setting [6]).

Take `COc1nc(C)nc(NC(=O)NS(=O)(=O)c2ccccc2Cl)n1` [Chlorsulfuron]: the pest or weed control at 200 g/ha in experiment [1] (setting [5]) was found to be 100%; in experiment [2] (setting [7]) it was 100%; in experiment [3] (setting [7]), 13%; in experiment [4] (setting [5]) it was 33%. The “Fresh Weight” value is recorded as 0.0 g in experiment [1] (setting [6]), 1.7 g in experiment [2] (setting [8]), 105.2 g in experiment [3] (setting [8]) and 48.4 g in experiment [4] (setting [6]).

Turning to `CCOc1nc(NC)nc(NC(=O)NS(=O)(=O)c2ccccc2C(=O)OC)n1` [Ethametsulfuron-methyl], the pest or weed control at 200 g/ha is 100% in experiment [1], 96% in experiment [2] ([…]), 6% in experiment [3] ([…]) and 88% in experiment [4]. For the same compound, the “Fresh Weight” value is listed as 1.6 g in experiment [1] (setting [6]), 5.6 g in experiment [2] (setting [8]), 98.0 g in experiment [3] (setting [8]) and 50.1 g in experiment [4] (setting [6]).

On to `CCOc1ccccc1OS(=O)(=O)NC(=O)Nc1nc(OC)cc(OC)n1` [Ethoxysulfuron], for which the pest or weed control at 200 g/ha in experiment [1] (setting [5]) was 63%; in experiment [2] (setting [7]), 88%; in experiment [3] (setting [7]), 15%; in experiment [4] (setting [5]), 25%. The “Fresh Weight” value in experiment [1] (setting [6]) was found to be 28.1 g; in experiment [2] (setting [8]) it was 24.3 g; in experiment [3] (setting [8]) it was 79.3 g; in experiment [4] (setting [6]), 40.0 g.

On to `COc1nn(C(=O)NS(=O)(=O)c2ccccc2OC(F)(F)F)c(=O)n1C` [Flucarbazone Na^+, Flucarbazone], for which the “% Visual Injury” value in experiment [1] (setting [5]) came to 100%; in experiment [2] (setting [7]), 100%; in experiment [3] (setting [7]), 14%; in experiment [4] (setting [5]), 40%. For the same compound, the “Fresh Weight” value in experiment [1] (setting [6]) is listed as 0.0 g; in experiment [2] (setting [8]) it was 3.1 g; in experiment [3] (setting [8]), 86.0 g; in experiment [4] (setting [6]), 48.8 g.

In the case of `Cc1ccn2nc(S(=O)(=O)Nc3c(F)cccc3F)nc2n1` [Flumetsulam], the pest or weed control at 200 g/ha in experiment [1] (setting [5]) stood at 13%; in experiment [2] (setting [7]), 85%; in experiment [3] (setting [7]), 3%; in experiment [4] (setting [5]), 13%. Further, the “Fresh Weight” value in experiment [1] (setting [6]) is 24.6 g; in experiment [2] (setting [8]), 12.8 g; in experiment [3] (setting [8]), 103.8 g; in experiment [4] (setting [6]), 39.1 g.

As to `COC(=O)c1ccc(C(F)(F)F)nc1S(=O)(=O)NC(=O)Nc1nc(OC)cc(OC)n1` [Flupyrsulfuron-methyl Na^+, Flupyrsulfuron-methyl], the “% Visual Injury” value in experiment [1] (setting [5]) was 87%; in experiment [2] (setting [7]), 95%; in experiment [3] (setting [7]), 4%; in experiment [4] (setting [5]) it was 90%. For the same compound, the “Fresh Weight” value in experiment [1] (setting [6]) is listed as 23.6 g; in experiment [2] (setting [8]), 5.2 g; in experiment [3] (setting [8]) it was 95.5 g; in experiment [4] (setting [6]), 45.8 g.

For `COc1cc(OC)nc(NC(=O)NS(=O)(=O)c2cc(NC=O)ccc2C(=O)N(C)C)n1` [Foramsulfuron], the pest or weed control at 200 g/ha was 5% in experiment [1] (setting [5]), 28% in experiment [2] (setting [7]), 8% in experiment [3] (setting [7]) and 7% in experiment [4] (setting [5]). Further, the “Fresh Weight” value in experiment [1] (setting [6]) is 30.6 g; in experiment [2] (setting [8]), 62.5 g; in experiment [3] (setting [8]) it was 80.6 g; in experiment [4] (setting [6]), 39.1 g.

Turning to `CP(=O)(O)CCC(N)C(=O)O` (stereo not shown) [Glufosinate ammonium], the pest or weed control at 200 g/ha is 99% in experiment [2] ([…]) and 1% in experiment [3] ([…]). The figures for the “Fresh Weight” value in experiment [2] (setting [8]) and in experiment [3] (setting [8]) were 2.4 g and 112.3 g, respectively.

For `COC(=O)c1c(Cl)nn(C)c1S(=O)(=O)NC(=O)Nc1nc(OC)cc(OC)n1` [Halosulfuron-methyl], the pest or weed control at 200 g/ha came to 30% in experiment [1], 14% in experiment [2] ([…]), 8% in experiment [3] ([…]) and 15% in experiment [4]. The “Fresh Weight” value in experiment [1] (setting [6]) worked out at 28.9 g; in experiment [2] (setting [8]), 58.1 g; in experiment [3] (setting [8]), 94.5 g; in experiment [4] (setting [6]), 40.1 g.

Turning to `COCc1cnc(C2=NC(C)(C(C)C)C(=O)N2)c(C(=O)O)c1` (stereo not shown) [Imazamox], the pest or weed control at 200 g/ha was 99% in experiment [1] (setting [5]), 100% in experiment [2] (setting [7]), 4% in experiment [3] (setting [7]) and 13% in experiment [4] (setting [5]). Moreover, the “Fresh Weight” value in experiment [1] (setting [6]) worked out at 0.8 g; in experiment [2] (setting [8]), 2.2 g; in experiment [3] (setting [8]) it was 90.9 g; in experiment [4] (setting [6]), 47.5 g.

On to `CC(C)C1(C)N=C(c2nc3ccccc3cc2C(=O)O)NC1=O` (stereo not shown) [Imazaquin], for which the pest or weed control at 200 g/ha is 99% in experiment [1], 100% in experiment [2] ([…]), 2% in experiment [3] ([…]) and 28% in experiment [4]. Besides, the “Fresh Weight” value is given as 1.5 g in experiment [1] (setting [6]), 4.4 g in experiment [2] (setting [8]), 113.3 g in experiment [3] (setting [8]) and 45.4 g in experiment [4] (setting [6]).

As to `CCc1cnc(C2=NC(C)(C(C)C)C(=O)N2)c(C(=O)O)c1` (stereo not shown) [Imazethapyr], the pest or weed control at 200 g/ha in experiment [1] (setting [5]) amounted to 69%; in experiment [2] (setting [7]), 97%; in experiment [3] (setting [7]), 9%; in experiment [4] (setting [5]), 20%. Besides, the “Fresh Weight” value worked out at 24.4 g in experiment [1] (setting [6]), 6.4 g in experiment [2] (setting [8]), 93.4 g in experiment [3] (setting [8]) and 50.0 g in experiment [4] (setting [6]).

With `COC(=O)c1ccc(I)cc1S(=O)(=O)NC(=O)Nc1nc(C)nc(OC)n1` [Iodosulfuron-methyl Na^+, Iodosulfuron-methyl], the “% Visual Injury” value in experiment [1] (setting [5]) is 92%; in experiment [2] (setting [7]), 100%; in experiment [3] (setting [7]), 1%; in experiment [4] (setting [5]), 5%. The “Fresh Weight” value in experiment [1] (setting [6]) amounted to 24.4 g; in experiment [2] (setting [8]), 3.5 g; in experiment [3] (setting [8]), 95.0 g; in experiment [4] (setting [6]), 52.5 g.

As for `COc1cc(OC)nc(NC(=O)NS(=O)(=O)c2ncccc2C(=O)N(C)C)n1` [Nicosulfuron], the pest or weed control at 200 g/ha in experiment [1] (setting [5]) worked out at 43%; in experiment [2] (setting [7]) it was 24%; in experiment [3] (setting [7]), 0%; in experiment [4] (setting [5]), 0%. For the same compound, the “Fresh Weight” value in experiment [1] (setting [6]) was determined as 33.6 g; in experiment [2] (setting [8]) it was 62.7 g; in experiment [3] (setting [8]) it was 94.7 g; in experiment [4] (setting [6]), 50.3 g.

With `COC(=O)c1ccccc1S(=O)(=O)NC(=O)Nc1nc(OC(F)F)cc(OC(F)F)n1` [Primisulfuron-methyl], the pest or weed control at 200 g/ha in experiment [1] came to 68%; in experiment [2] ([…]), 75%; in experiment [3] ([…]), 5%; in experiment [4] it was 7%. In addition, the “Fresh Weight” value amounted to 19.5 g in experiment [1] (setting [6]), 16.6 g in experiment [2] (setting [8]), 101.0 g in experiment [3] (setting [8]) and 37.9 g in experiment [4] (setting [6]).
